We go through eight compounds from US20050182078A1, “2-(Pyridin-3-ylamino)-pyrido[2,3-D]pyrimidin-7-ones” (WARNER-LAMBERT COMPANY, LLC, priority 2004, published 2005).

In one series the test system is neointima formation. To be noted: in rats; Brooks E. E. et al., J. Biol. Chem. 1997; cited from earlier work.
A further series concerns the target CDK4/Cyclin D (Homo sapiens, UniProt P11802). The series is described as follows: Assay for Inhibition of CDK4/Cyclin D. The conditions noted are these: 20 ng CDK4, retinoblastoma protein substrate, 25 μM ATP, 25° C. 15 minutes. The format is biochemical. On the procedure: (§1) To determine the inhibitory potency and selectivity of compounds of the present invention against CDK4 and related kinases, compounds were evaluated in standard assays routinely used to measure inhibition of cyclin-dependent kinase enzymes and other protein kinases (see for example D. W. Fry et al., J. Biol. Chem. 2001, 276, 16617-16623). The assays were carried out as described below.
Assay for Inhibition of CDK4/Cyclin D
The CDK4 enzyme assay for IC50 determination and kinetic evaluation is performed as follows. 96-well filter plates (Millipore MADVN6550, Bedford, Mass.) are used. The total volume is 0.1 mL containing buffer A (20 mM TRIS (tris[hydroxymethyl]aminomethane)) (pH 7.4), 50 mM NaCl, 1 mM dithiothreitol, 10 mM MgCl2), 25 μM ATP containing 0.25 μCi [^32P]ATP, 20 ng CDK4, 1 μg retinoblastoma protein and the test compound at appropriate dilutions in buffer A. Buffer A alone without added test compound was employed as a control for no inhibition. Buffer A containing excess EDTA was used to determine the level of background ^32P in the absence of enzyme activity. All components except the ATP are added to the wells, and the plate is placed on a plate mixer for 2 minutes. The reaction is started by adding [^32P]ATP, and the plate is incubated at 25° C. for 15 minutes. The reaction is terminated by addition of 0.1 mL 20% trichloroacetic acid (TCA). The plate is kept at 4° C. for at least 1 hour to allow the substrate to precipitate. The wells are then washed five times with 0.2 mL 10% TCA, and ^32P incorporation is determined with a beta plate counter (Wallac Inc., Gaithersburg, Md.). The IC50 of the test compound was determined using the median effect method (Chou, T-C and Talalay, P. Applications of the median effect principle for the assessment of low-dose risk of carcinogens and for the quantitation of synergism and antagonism of chemotherapeutic agents. In: New Avenues in Developmental Cancer Chemotherapy (Eds. Harrap, K. T. and Connors, T. A.), pp. 37-64. Academic Press, New York, 1987).

A further series has as its target CDK2/cyclin A (Homo sapiens, UniProt P24941). The series is described as follows: Assay for Inhibition of CDK2/Cyclin A. To be noted: 20 ng CDK2/cyclin A, retinoblastoma protein substrate, [32P]ATP, 25° C. 15 minutes. The class given is biochemical. On the procedure: as §1
Assay for Inhibition of CDK2/Cyclin A
CDK2 enzyme assays for IC50 determinations and kinetic evaluation are performed as follows. 96-well filter plates (Millipore MADVN6550, Bedford, Mass.) are used. The final assay volume is 0.1 mL containing buffer A (20 mM TRIS (tris[hydroxymethyl]aminomethane) (pH 7.4), 50 mM NaCl, 1 mM dithiothreitol, 10 mM MgCl2), […] ATP containing 0.25 μCi [^32P]ATP, 20 ng CDK2/cyclin A, 1 μg retinoblastoma protein, and the test compound at appropriate dilutions in buffer A (Buffer A alone without added test compound was employed as a control for no inhibition. Buffer A containing excess ethylenediamine tetra acetic acid (EDTA) was used to determine the level of background ^32P in the absence of enzyme activity). All components except the ATP are added to the wells, and the plate is placed on a plate mixer for 2 minutes. The reaction is initiated by addition of [^32P]ATP, and the plate is incubated at 25° C. for 15 minutes. The reaction is terminated by addition of 0.1 mL 20% trichloroacetic acid (TCA). The plate is kept at 4° C. for at least 1 hour to allow the substrate to precipitate. The wells are then washed five times with 0.2 mL 10% TCA, and ^32P incorporation is determined with a beta plate counter (Wallac Inc., Gaithersburg, Md.). The IC50 of the test compound was determined using the median effect method (Chou, T-C and Talalay, P. Applications of the median effect principle for the assessment of low-dose risk of carcinogens and for the quantitation of synergism and antagonism of chemotherapeutic agents. In: New Avenues in Developmental Cancer Chemotherapy (Eds. Harrap, K. T. and Connors, T. A.), pp. 37-64. Academic Press, New York, 1987).

Structures can show the parent of a compound that is named as a salt.

CDK4/Cyclin D, sequence (P11802 whole entry, species assumed): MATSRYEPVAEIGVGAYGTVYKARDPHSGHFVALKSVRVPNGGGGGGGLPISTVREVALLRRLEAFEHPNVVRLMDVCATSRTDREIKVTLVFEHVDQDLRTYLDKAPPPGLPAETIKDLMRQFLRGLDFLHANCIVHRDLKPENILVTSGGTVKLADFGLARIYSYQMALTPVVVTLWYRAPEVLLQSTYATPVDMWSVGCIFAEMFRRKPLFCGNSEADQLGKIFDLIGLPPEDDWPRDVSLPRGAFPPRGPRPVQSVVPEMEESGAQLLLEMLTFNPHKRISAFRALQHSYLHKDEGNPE
CDK4/Cyclin D, sequence (P24385 whole entry partner, species assumed): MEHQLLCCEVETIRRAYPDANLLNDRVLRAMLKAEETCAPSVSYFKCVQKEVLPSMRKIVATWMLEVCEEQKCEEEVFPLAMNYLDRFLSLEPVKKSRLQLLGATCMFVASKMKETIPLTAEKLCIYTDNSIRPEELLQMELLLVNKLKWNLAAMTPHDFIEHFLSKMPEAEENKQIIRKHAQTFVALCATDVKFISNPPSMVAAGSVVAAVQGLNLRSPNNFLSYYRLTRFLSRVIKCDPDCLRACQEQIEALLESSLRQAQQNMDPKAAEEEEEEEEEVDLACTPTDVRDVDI

Take `COc1ccc(CNc2nc(N(CCO)CCO)nc3c2ncn3C(C)C)cc1` [CVT-313]: the “inhibition of neointima formation” value in the series with neointima formation was “greater than 80%”.

`CC(C)n1c(=O)ccc2cnc(Nc3cccnc3)nc21` [Example 1, 8-Isopropyl-2-(pyridin-3-ylamino)-8H-pyrido[2,3-d]pyrimidin-7-one] gave a melting point of 156 to 158 °C. Also, the IC50 on CDK4/Cyclin D was 0.535 µM. In addition, the IC50 at CDK2/cyclin A amounted to 0.235 µM.

`COc1ccc(Nc2ncc3ccc(=O)n(C4CCCC4)c3n2)cn1` [Example 2, 8-Cyclopentyl-2-(6-methoxy-pyridin-3-ylamino)-8H-pyrido[2,3-d]pyrimidin-7-one] gave a melting point of 181 to 182 °C. For the same compound, the IC50 at CDK4/Cyclin D stood at 0.082 µM. The IC50 at CDK2/cyclin A worked out at 0.029 µM.

On to `O=c1c(Br)cc2cnc(Nc3ccc(N4CCNCC4)nc3)nc2n1C1CCCC1` [Example 3, 6-Bromo-8-cyclopentyl-2-(6-piperazin-1-yl-pyridin-3-ylamino)-8H-pyrido[2,3-d]pyrimidin-7-one hydrochloride salt], for which the IC50 at CDK4/Cyclin D was 0.012 µM; at CDK2/cyclin A, 0.19 µM.

In the case of `Cc1c(Br)c(=O)n(C2CCCC2)c2nc(Nc3ccc(N4CCOCC4)nc3)ncc12` [Example 4, 6-Bromo-8-cyclopentyl-5-methyl-2-(6-morpholin-4-yl-pyridin-3-ylamino)-8H-pyrido[2,3-d]pyrimidin-7-one], the melting point lay within 254 to 256 °C. Also, the IC50 at CDK4/Cyclin D was determined as 0.099 µM. Besides, the IC50 on CDK2/cyclin A was 1.02 µM.

In turn, `CC(=O)c1c(C)c2cnc(Nc3ccc(N4CCOCC4)nc3)nc2n(C2CCCC2)c1=O` [Example 5, 6-Acetyl-8-cyclopentyl-5-methyl-2-(6-morpholin-4-yl-pyridin-3-ylamino)-8H-pyrido[2,3-d]pyrimidin-7-one] came in with a melting point of 224 to 226 °C.

The compound `Cc1c(Br)c(=O)n(C2CCCC2)c2nc(Nc3ccc(N4CCNCC4)nc3)ncc12` [Example 6, 6-Bromo-8-cyclopentyl-5-methyl-2-(6-piperazin-1-yl-pyridin-3-ylamino)-8H-pyrido[2,3-d]pyrimidin-7-one] had a melting point of 290 °C. Further, on CDK4/Cyclin D, the IC50 was found to be 0.022 µM. In addition, at CDK2/cyclin A, the half-maximal inhibitory concentration (IC50) came out at 3.2 µM.

For `CC(=O)c1c(C)c2cnc(Nc3ccc(N4CCNCC4)nc3)nc2n(C2CCCC2)c1=O` [Example 7, 6-Acetyl-8-cyclopentyl-5-methyl-2-(6-piperazin-1-yl-pyridin-3-ylamino)-8H-pyrido[2,3-d]pyrimidin-7-one], the melting point amounted to 125 °C. Also, at CDK4/Cyclin D, the 50% inhibitory concentration (IC50) is 0.003 µM. For the same compound, the IC50 on CDK2/cyclin A was found to be 0.26 µM.

Broadly, the IC50 is the midpoint of a concentration-inhibition curve. What is called melting point is the temperature, or range, at which the solid turns liquid.
